Measurements from US5374720A, “2-(substituted pyrrolidinylthio)carbapenem derivatives” (Banyu Pharmaceutical Co., Ltd., priority 1990, dated 1994).
In brackets after ≈: the same amount, converted by molar mass. Like-named read-outs stand apart in the source and are kept apart here.

Key:
P. aeruginosa AKR17 = assay: in vitro antibacterial activity, agar plate dilution method (MIC); type: cell-based; conditions: for MIC: Pseudomonas aeruginosa, AKR17, 16 h, read-out: Minimum Inhibitory Concentration (MIC)
Procedure: (§1) One platinum loopful of each test microorganism incubated overnight in Mueller Hinton broth, was inoculated to Mueller Hinton agar (inoculum size: 10^6 CFU/ml). Such culture media contained antibacterial agents in various concentrations. After incubation at 37° C. for 16 hours, the minimum inhibitory concentrations (MIC: μg/ml) were measured.

P. aeruginosa MB5000 = assay: as above; type: cell-based; conditions: for MIC: Pseudomonas aeruginosa, MB5000, 16 h, read-out: Minimum Inhibitory Concentration (MIC)
Procedure: as §1

P. aeruginosa MB5002 = assay: as above; type: cell-based; conditions: for MIC: Pseudomonas aeruginosa, MB5002, 16 h, read-out: Minimum Inhibitory Concentration (MIC)
Procedure: as §1

Meth-R S. aureus = assay: disc diffusion test, relative antibacterial potency to thienamycin; type: cell-based; conditions: ratio to thienamycin (=1.0), larger = higher activity
Procedure: (§2) The antibacterial activities of the compounds of the present invention described in the Examples, as representative examples of the compound of the present invention, were measured by a disc diffusion test by the method of Bauer et al. (Amer. J. Clin. Pathol., vol. 45, p. 493 (1966)). Thienamycin or imipenem was used as the internal standard.
(§3) MIC of each test compound was calculated from the diameter of the inhibition ring formed by the disc containing the test compound by using the calculation formula reported by Humphrey and Lightbown (J. Gen. Microbiol., vol. 7, p. 129 (1952)). For each microorganism, a geometrical average of MIC was obtained, and the activity ratio to thienamycin was calculated.
(§4) The antibacterial activities are represented by the ratio to thienamycin (=1.0), whereby the larger the numerical value, the higher the activities.

THM-R P. aeruginosa = assay: as above; type: cell-based; conditions: ratio to thienamycin (=1.0), larger = higher activity
Procedure: as §2, §3, §4

DHP-I = DHP-I susceptibility (method by Kropp et al.); type: in vitro ADME
Text: The DHP-I susceptibility was quantitatively analyzed by the method by Kropp et al., Antimicrob. Agents Chemother., vol. 22, p. 62-70 (1982), whereby the smaller the numerical value representing the ratio to imipenem (=1.0), the higher the stability. The antibacterial potency and the DHP-I susceptibility of the compounds of the present invention were compared with imipenem and meropenem.

[1] = tested on: gram positive bacteria and gram negative bacteria; conditions: background; cited from earlier work
[2] = background, cited from earlier work
β-lactamase = conditions: background; cited from earlier work
[3] = due to the decomposition products; cited from earlier work
[4] = tested on: DHP-I in the human kidney; conditions: background; cited from earlier work
[5] = tested on: highly methicillin resistant Staphylococcus aureus which is resistant to imipenem and imipenem resistant Pseudomonas aeruqinosa; conditions: background; cited from earlier work
[6] = tested on: highly methicillin resistant Staphylococcus aureus; conditions: background; cited from earlier work
[7] = tested on: renal dehydropeptidase I (DHP-I); conditions: background; cited from earlier work
[8] = background; cited from earlier work
[9] = P. aeruginosa AKR17 (lactamase producing microorganism), Mueller Hinton agar, 10^6 CFU/ml, 37° C., 16 hours
[10] = P. aeruginosa MB5000, Mueller Hinton agar, 10^6 CFU/ml, 37° C., 16 hours
[11] = P. aeruginosa MB5002, Mueller Hinton agar, 10^6 CFU/ml, 37° C., 16 hours
[12] = ratio to imipenem (=1.0), smaller = higher stability

SMILES | MIC (P. aeruginosa AKR17; [9]) | MIC (P. aeruginosa MB5000; [10]) | MIC (P. aeruginosa MB5002; [11]) | Relative antibacterial potency to thienamycin (Meth-R S. aureus) | Relative antibacterial potency to thienamycin (THM-R P. aeruginosa) | DHP-I susceptibility (DHP-I; [12]) | other results
C[C@@H](O)[C@H]1C(=O)N2C(C(=O)O)=C(S[C@@H]3CN[C@H](C4CCNC4)C3)[C@H](C)[C@H]12 (single isomer, unassigned) [Example 11 Diastereomer A] | 0.78 µg/mL (≈ 2.04 µM) | 0.1 µg/mL (≈ 0.262 µM) | 0.78 µg/mL (≈ 2.04 µM) | 15.2 | 12.7 | < 0.05 | –
C[C@@H](O)[C@H]1C(=O)N2C(C(=O)O)=C(S[C@@H]3CN[C@H](C4CCNC4)C3)[C@H](C)[C@H]12 (single isomer, unassigned) [Example 11 Diastereomer B] | – | – | – | 12.3 | 11.5 | < 0.05 | Minimum Inhibitory Concentration (MIC) (P. aeruginosa AKR17; [9]): 1.56 µg/mL; Minimum Inhibitory Concentration (MIC) (P. aeruginosa MB5000; [10]): 0.2 µg/mL; Minimum Inhibitory Concentration (MIC) (P. aeruginosa MB5002; [11]): 1.56 µg/mL
C[C@@H](O)[C@H]1C(=O)N2C(C(=O)O)=C(S[C@@H]3CN[C@H](C4CCN(C)C4)C3)[C@H](C)[C@H]12 (single isomer, unassigned) [Example 12 Diastereomer A] | 1.56 µg/mL (≈ 3.94 µM) | – | 1.56 µg/mL (≈ 3.94 µM) | – | – | – | –
C[C@@H](O)[C@H]1C(=O)N2C(C(=O)[O-])=C(S[C@@H]3CN[C@H](C4CC[N+](C)(C)C4)C3)[C@H](C)[C@H]12 (single isomer, unassigned) [Example 13 Diastereomer A] | 1.56 µg/mL (≈ 3.81 µM) | 0.2 µg/mL (≈ 0.488 µM) | 0.78 µg/mL (≈ 1.9 µM) | – | – | – | –
C[C@@H](O)[C@H]1C(=O)N2C(C(=O)[O-])=C(S[C@@H]3CN[C@H](C4CC[N+](C)(C)C4)C3)[C@H](C)[C@H]12 (single isomer, unassigned) [Example 13] | – | – | – | – | 11.5 | < 0.05 | –
C[C@@H](O)[C@H]1C(=O)N2C(C(=O)O)=C(S[C@@H]3CN[C@H](CC4CN[C@H](C(N)=O)C4)C3)[C@H](C)[C@H]12 (stereo partly drawn) [Example 32, (1R, 5S,6S)-2-[(2R,4S)-2-[(2S)-2-carbamoylpyrrolidin-4-ylmethyl]pyrrolidin-4-ylthio]-6-[(R)-1-hydroxyethyl]-1-methyl-1-carbapen-2-em-3-carboxylic acid] | – | – | – | – | 19.5 | < 0.05 | –
C[C@@H](O)[C@H]1C(=O)N2C(C(=O)O)=C(S[C@@H]3CN[C@H](CC4CN[C@H](C(=O)N(C)C)C4)C3)[C@H](C)[C@H]12 (stereo partly drawn) [Example 34, (1R,5S,6S)-6-[(R)-1-hydroxyethyl]-1-methyl-2-[(2R,4S)-2-[(2S)-2-(dimethylcarbamoyl)pyrrolidin-4-ylmethyl]pyrrolidin-4-ylthio]-1-carbapen-2-em-3-carboxylic acid] | – | – | – | 22.7 | 21.6 | 0.07 | –
C[C@@H](O)[C@H]1C(=O)N2C(C(=O)O)=C(S[C@@H]3CN[C@H](C4CCNCC4)C3)[C@H](C)[C@H]12 [Example 43, (1R,5S,6S)-6-[(R)-1-hydroxyethyl]-1-methyl-2-[(2S,4S)-2-(piperidin-4-yl)pyrrolidin-4-ylthio]-1-carbapen-2-em-3-carboxylic acid] | 1.56 µg/mL (≈ 3.94 µM) | 0.1 µg/mL (≈ 0.253 µM) | 0.39 µg/mL (≈ 0.986 µM) | – | – | – | –
C[C@@H](O)[C@H]1C(=O)N2C(C(=O)O)=C(S[C@@H]3CN[C@H](C4CCN(C)CC4)C3)[C@H](C)[C@H]12 [Example 49] | 1.56 µg/mL (≈ 3.81 µM) | 0.2 µg/mL (≈ 0.488 µM) | 0.78 µg/mL (≈ 1.9 µM) | 13.6 | 13.8 | 0.10 | –
C[C@@H](O)[C@H]1C(=O)N2C(C(=O)O)=C(SCCN=CN)C[C@H]12 [Imipenem, (5R,6S,8R)-3-[[2-(formimidoylamino)ethyl]thio]-6-(1-hydroxyethyl)-7-oxo-1-azabicyclo[3.2.0]hept-2-en-2-carboxylic acid monohydrate, reference compound] | – | – | – | 2.57 | 2.0 | 1.0 | MIC (P. aeruginosa AKR17): 6.25 µg/mL; MIC (P. aeruginosa MB5000): 1.56 µg/mL; MIC (P. aeruginosa MB5002): 3.13 µg/mL; antibacterial activities [1]: equal or higher level than thienamycin against various types of bacteria; stability in the solid form or in an aqueous solution ([2]; compared with thienamycin): remarkably improved over thienamycin; β-lactamase resistance (β-lactamase): has β-lactamase resistance; toxicity against the kidney [3]: presents toxicity against the kidney due to the decomposition products; decomposition by DHP-I in the human kidney [4]: likely to be decomposed by DHP-I in the human kidney; treating effects against resistant bacteria [5]: does not show adequate treating effects against these resistant bacteria
C[C@@H](O)[C@H]1C(=O)N2C(C(=O)O)=C(S[C@@H]3CN[C@H](C(=O)N(C)C)C3)[C@H](C)[C@H]12 [Meropenem, (4R,5S,6S,8R,2'S,4'S)-6-(1-hydroxyethyl)-4-methyl-3-[2-(N,N-dimethylaminocarbonyl)-pyrrolidin-4-ylthio]-7-oxo-1-azabicyclo[3.2.0]hept-2-en-2-carboxylic acid, reference compound] | 3.13 µg/mL (≈ 8.16 µM) | 0.39 µg/mL (≈ 1.02 µM) | 6.25 µg/mL (≈ 16.3 µM) | 3.22 | 6.9 | – | DHP-I susceptibility (DHP-I): 0.12; antibacterial activities against highly methicillin resistant Staphylococcus aureus [6]: not adequate; decomposition by / stability against DHP-I [7]: substantially improved
C[C@@H](O)[C@H]1C(=O)N2C(C(=O)O)=C(SCCN)C[C@H]12 [Thienamycin, thienamycin] | – | – | – | – | – | – | antibacterial activities [1]: strong antibacterial activities over a wide range against gram positive bacteria and gram negative bacteria; decomposition by / stability against DHP-I [7]: likely to be decomposed by a certain enzyme in vivo such as renal dehydropeptidase I; chemical stability [2]: chemically unstable; recovery rate in the urine [8]: low; decomposition by DHP-I in the human kidney [4]: likely to be decomposed by DHP-I in the human kidney
